# Test results: patent US20250163038A1, “CBL-B MODULATORS AND USES THEREOF” (Nimbus Clio, Inc., priority 2021, published 2025)
# Experiments:
# [1] = molecular target: T1, Recombinant human c-Cbl (aa 47-435) (Homo sapiens, UniProt P22681); experiment: c-Cbl Biochemical Assay (TR-FRET); conditions: hc-Cbl Biochemical Assay (TR-FRET); read-out: TR-FRET hcCbl IC50
# T1 sequence (P22681 47-435): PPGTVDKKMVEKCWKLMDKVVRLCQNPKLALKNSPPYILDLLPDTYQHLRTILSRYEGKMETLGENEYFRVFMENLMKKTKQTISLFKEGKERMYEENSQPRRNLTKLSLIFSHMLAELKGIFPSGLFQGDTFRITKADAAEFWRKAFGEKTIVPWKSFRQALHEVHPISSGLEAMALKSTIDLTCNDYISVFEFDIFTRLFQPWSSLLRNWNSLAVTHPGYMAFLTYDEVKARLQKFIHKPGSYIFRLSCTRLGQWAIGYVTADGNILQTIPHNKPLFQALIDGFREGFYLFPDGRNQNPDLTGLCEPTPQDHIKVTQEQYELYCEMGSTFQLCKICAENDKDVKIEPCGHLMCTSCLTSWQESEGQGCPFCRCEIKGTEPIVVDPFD
# [2] = molecular target: Recombinant human Cbl-b (aa 36-427) (Homo sapiens, UniProt Q13191); experiment: Cbl-b Biochemical Assay (TR-FRET); conditions: read-out: TR-FRET hCbl-b IC50
# Sequence of Recombinant human Cbl-b (aa 36-427) (Q13191 36-427): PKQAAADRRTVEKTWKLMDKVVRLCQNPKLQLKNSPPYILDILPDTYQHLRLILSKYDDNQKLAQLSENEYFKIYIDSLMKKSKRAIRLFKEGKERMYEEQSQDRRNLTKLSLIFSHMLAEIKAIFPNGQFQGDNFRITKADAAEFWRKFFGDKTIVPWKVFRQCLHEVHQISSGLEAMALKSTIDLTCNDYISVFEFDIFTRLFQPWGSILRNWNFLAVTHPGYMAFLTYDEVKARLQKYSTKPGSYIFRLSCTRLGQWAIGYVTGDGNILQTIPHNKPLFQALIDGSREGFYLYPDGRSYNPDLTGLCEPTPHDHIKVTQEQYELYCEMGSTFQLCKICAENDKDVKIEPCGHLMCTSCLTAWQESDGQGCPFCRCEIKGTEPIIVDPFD
IC50 [1] [µM],IC50 [2] [µM],SMILES
,10 to 50,"Cn1cnnc1CC1(c2cccc(-c3nc4cc(C(=O)Nc5nccn5C)cc(C(F)(F)F)c4[nH]3)c2)COC1 [ABZ-2, N-(1-Methyl-1H-imidazol-2-yl)-2-(3-(3-((4-methyl-4H-1,2,4-triazol-3-yl)methyl)oxetan-3-yl)phenyl)-7-(trifluoromethyl)-1H-benzo[d]imidazole-5-carboxamide]"
,10 to 50,"Cn1cnnc1-c1ccccc1-c1cccc(-c2nc3cc(C(=O)N4CCC5(CC5)C4)cc(C(F)(F)F)c3[nH]2)c1 [ACE-1, (2-(2′-(4-Methyl-4H-1,2,4-triazol-3-yl)-[1,1′-biphenyl]-3-yl)-7-(trifluoromethyl)-1H-benzo[d]imidazol-5-yl)(5-azaspiro[2.4]heptan-5-yl)methanone]"
10 to 50,1 to 10,"C[C@@H]1CCCN(Cc2cc(C(F)(F)F)c3[nH]c(-c4cccc(-c5ccccc5-c5nncn5C)c4)nc3c2)C1 [AAJ-1, 2-[2′-(4-Methyl-1,2,4-triazol-3-yl)-[1,1′-biphenyl]-3-yl]-6-{[(3R)-3-methylpiperidin-1-yl]methyl}-4-(trifluoromethyl)-3H-1,3-benzodiazole]"
,10 to 50,"Cn1cnnc1CC1(c2cccc(-c3nc4cccc(C5CC5)c4[nH]3)c2)COC1 [ABG-3, 7-Cyclopropyl-2-(3-(3-((4-methyl-4H-1,2,4-triazol-3-yl)methyl)oxetan-3-yl)phenyl)-1H-benzo[d]imidazole]"
10 to 50,0.2 to 1,"Cn1cnnc1CC1(c2cccc(-c3nc4cc(CN5CC[C@@H](O)C5)cc(C(F)(F)F)c4[nH]3)c2)COC1 [ACB-1, (R)-1-((2-(3-(3-((4-Methyl-4H-1,2,4-triazol-3-yl)methyl)oxetan-3-yl)phenyl)-7-(trifluoromethyl)-1H-benzo[d]imidazol-5-yl)methyl)pyrrolidin-3-ol]"
1 to 10,0.2 to 1,"Cn1cnnc1CC1(c2cccc(-c3nc4cc(CN5CC[C@H](O)C5)cc(C(F)(F)F)c4[nH]3)c2)COC1 [ACL-1, (S)-1-((2-(3-(3-((4-Methyl-4H-1,2,4-triazol-3-yl)methyl)oxetan-3-yl)phenyl)-7-(trifluoromethyl)-1H-benzo[d]imidazol-5-yl)methyl)pyrrolidin-3-ol]"
,10 to 50,"Cn1cnnc1CC1(c2cccc(-c3nc4cccc(Br)c4[nH]3)c2)COC1 [ABP-2, 4-Bromo-2-(3-[3-[(4-methyl-1,2,4-triazol-3-yl)methyl]oxetan-3-yl]phenyl)-1H-1,3-benzodiazole]"
,10 to 50,"Cn1cnnc1CC1(c2cccc(-c3nc4cccc(OC(F)(F)F)c4[nH]3)c2)COC1 [ABQ-2, 2-(3-(3-((4-Methyl-4H-1,2,4-triazol-3-yl)methyl)oxetan-3-yl)phenyl)-7-(trifluoromethoxy)-1H-benzo[d]imidazole]"
,10 to 50,"Cn1cnnc1-c1ccccc1-c1cccc(-c2nc3cccc(C(F)(F)F)c3[nH]2)c1 [ABW-1, 2-(2′-(4-Methyl-4H-1,2,4-triazol-3-yl)-[1,1′-biphenyl]-3-yl)-7-(trifluoromethyl)-1H-benzo[d]imidazole]"
,10 to 50,"Cn1cnnc1CC1(c2cccc(-c3nc4cc(Br)cc(C(F)(F)F)c4[nH]3)c2)COC1 [ABE-2, 5-Bromo-2-(3-(3-((4-methyl-4H-1,2,4-triazol-3-yl)methyl)oxetan-3-yl)phenyl)-7-(trifluoromethyl)-1H-benzo[d]imidazole]"
,10 to 50,"Cn1cnnc1CC1(c2cccc(-c3nc4c(C(F)(F)F)cccc4s3)c2)COC1 [ABF-4, 2-(3-[3-[(4-Methyl-1,2,4-triazol-3-yl)methyl]oxetan-3-yl]phenyl)-4-(trifluoromethyl)-1,3-benzothiazole]"
,10 to 50,"Cn1cnnc1CC1(c2cccc(-c3nc4cccc(Cl)c4[nH]3)c2)COC1 [ABM-2, 7-Chloro-2-(3-(3-((4-methyl-4H-1,2,4-triazol-3-yl)methyl)oxetan-3-yl)phenyl)-1H-benzo[d]imidazole]"
,10 to 50,"Cn1cnnc1CC1(c2cccc(-c3cc(C(F)(F)F)cn(CCN4CC(O)C4)c3=O)c2)COC1 [ACH-5, 1-(2-(3-Hydroxyazetidin-1-yl)ethyl)-3-(3-(3-((4-methyl-4H-1,2,4-triazol-3-yl)methyl)oxetan-3-yl)phenyl)-5-(trifluoromethyl) pyridin-2(1H)-one]"
,10 to 50,"Cn1cnnc1CC1(c2cccc(-c3cc4cccc(C(F)(F)F)c4[nH]3)c2)COC1 [ACP-4, 2-(3-(3-((4-Methyl-4H-1,2,4-triazol-3-yl)methyl)oxetan-3-yl)phenyl)-7-(trifluoromethyl)-1H-indole]"
,10 to 50,"Cn1cnnc1-c1ccccc1-c1cccc(-c2nc3ccc(Br)c(C(F)(F)F)c3[nH]2)c1 [BB-1, 6-Bromo-2-(2′-(4-methyl-4H-1,2,4-triazol-3-yl)-[1,1′-biphenyl]-3-yl)-7-(trifluoromethyl)-1H-benzo[d]imidazole]"

# Continued, compound first:
SMILES,IC50 [1] [µM],IC50 [2] [µM]
"Cn1cnnc1-c1cc(F)ccc1-c1cc(Cl)nc(-c2nc3cc(CO)cc(C(F)(F)F)c3[nH]2)c1 [ADX-3, (2-{6-Chloro-4-[4-fluoro-2-(4-methyl-1,2,4-triazol-3-yl)phenyl]pyridin-2-yl}-7-(trifluoromethyl)-1H-1,3-benzodiazol-5-yl)methanol]",10 to 50,10 to 50
"Cn1cnnc1-c1ccccc1-c1cccc(-c2cc(C(F)(F)F)c[nH]c2=O)c1 [ABV-1, 3-(2′-(4-Methyl-4H-1,2,4-triazol-3-yl)-[1,1′-biphenyl]-3-yl)-5-(trifluoromethyl)pyridin-2(1H)-one]",10 to 50,10 to 50
"CCNc1cc(-c2ccccc2-c2nncn2C)cc(-c2nc3cccc(C(F)(F)F)c3o2)n1 [AS-12, N-ethyl-4-(2-(4-methyl-4H-1,2,4-triazol-3-yl)phenyl)-6-(7-(trifluoromethyl)benzo[d]oxazol-2-yl)pyridin-2-amine]",,10 to 50
"Cn1cnnc1-c1ccccc1-c1cccc(-c2nc3cc(CO)cc(C(F)(F)F)c3o2)c1 [Example F-5, (2-(2′-(4-Methyl-4H-1,2,4-triazol-3-yl)-[1,1′-biphenyl]-3-yl)-7-(trifluoromethyl)benzo[d]oxazol-5-yl)methanol]",10 to 50,1 to 10
"COC(=O)c1cc(OC)c2oc(-c3cccc([C@]4(c5nncn5C)C[C@@H](C)C4)c3)nc2c1 [AEA-1, Methyl 7-methoxy-2-{3-[(1r,3s)-3-methyl-1-(4-methyl-1,2,4-triazol-3-yl)cyclobutyl]phenyl}-1,3-benzoxazole-5-carboxylate]",10 to 50,10 to 50
"CN1CCC(C(=O)Nc2ccc3nc(-c4cccc(-c5ccccc5-c5nncn5C)c4)[nH]c3c2C(F)(F)F)CC1 [BF-3, 1-Methyl-N-(2-(2′-(4-methyl-4H-1,2,4-triazol-3-yl)-[1,1′-biphenyl]-3-yl)-7-(trifluoromethyl)-1H-benzo[d]imidazol-6-yl)piperidine-4-carboxamide, Formic Acid]",,10 to 50
N#CC1(CN)CCCC1 [AHN-1],< 0.2,
"CCNc1cc(-c2c(-c3nncn3C)cnn2C)cc(-c2nc3ccc(C)c(C(F)(F)F)c3[nH]2)n1 [ACV-5, N-Ethyl-4-(1-methyl-4-(4-methyl-4H-1,2,4-triazol-3-yl)-1H-pyrazol-5-yl)-6-(6-methyl-7-(trifluoromethyl)-1H-benzo[d]imidazol-2-yl) pyridin-2-amine]",,10 to 50
"Cn1cnnc1-c1ccccc1-c1cccc(-c2cc(C(F)(F)F)cn(C)c2=O)c1 [CG-4, 1-Methyl-3-(2′-(4-methyl-4H-1,2,4-triazol-3-yl)-[1,1′-biphenyl]-3-yl)-5-(trifluoromethyl)pyridin-2(1H)-one]",,10 to 50
"Cn1cnnc1-c1cc(F)ccc1-c1cccc(-c2nc3ccccc3[nH]2)c1 [CA-2, 2-(4′-Fluoro-2′-(4-methyl-4H-1,2,4-triazol-3-yl)-[1,1′-biphenyl]-3-yl)-1H-benzo[d]imidazole]",,10 to 50
"Cn1cnnc1CCc1cccc(-c2nc3cccc(C(F)(F)F)n3n2)c1 [ABI-7, 2-(3-(2-(4-Methyl-4H-1,2,4-triazol-3-yl)ethyl)phenyl)-5-(trifluoromethyl)-[1,2,4]triazolo[1,5-a]pyridine]",,10 to 50
"CCNc1cc(-c2c(-c3nncn3C)cnn2C)cc(-c2nc3cccc(C(F)(F)F)c3o2)n1 [ACW-2, N-Ethyl-4-(1-methyl-4-(4-methyl-4H-1,2,4-triazol-3-yl)-1H-pyrazol-5-yl)-6-(7-(trifluoromethyl)benzo[d]oxazol-2-yl)pyridin-2-amine]",,10 to 50
"Cn1cnnc1-c1cnn(C)c1-c1cccc(-c2nc3cccc(C(F)(F)F)n3n2)c1 [ABN-2, 4-Methyl-3-(1-methyl-5-{3-[5-(trifluoromethyl)-[1,2,4]triazolo[1,5-a]pyridin-2-yl]phenyl}pyrazol-4-yl)-1,2,4-triazole]",,10 to 50
"Cn1cnnc1-c1ccccc1-c1cccc(-c2cc(C(F)(F)F)c(C(=O)O)[nH]c2=O)c1 [CH-3, 5-(2′-(4-methyl-4H-1,2,4-triazol-3-yl)-[1,1′-biphenyl]-3-yl)-6-oxo-3-(trifluoromethyl)-1,6-dihydropyridine-2-carboxylic Acid]",,10 to 50
"CCNc1cc(-c2c(-c3nncn3C)cnn2C)cc(-c2nc3ccc(Br)c(C(F)(F)F)c3[nH]2)n1 [ACT-3, 6-(6-Bromo-7-(trifluoromethyl)-1H-benzo[d]imidazol-2-yl)-N-ethyl-4-(1-methyl-4-(4-methyl-4H-1,2,4-triazol-3-yl)-1H-pyrazol-5-yl) pyridin-2-amine]",,10 to 50
"Cn1cnnc1-c1ccccc1-c1cccc(-c2nc3ccc(F)c(C(F)(F)F)c3[nH]2)c1 [BC-1, 6-Fluoro-2-(2′-(4-methyl-4H-1,2,4-triazol-3-yl)-[1,1′-biphenyl]-3-yl)-7-(trifluoromethyl)-1H-benzo[d]imidazole]",,10 to 50
